Source: publication PMC6268061, “Investigation of the Biological Properties of (Hetero)Aromatic Thiosemicarbazones” (Molecules, 2012)
Values after ≈ are worked out from the molar mass of the structure shown. Values joined by “and” are separate entries in the source; they are usually repeats but may differ in a detail not shown here. Equal entries are not always repeated. Where two headings read alike, the source gives them in different places.

Experiments:
[1] = test system: Candida albicans ATCC 44859; experiment: In vitro antifungal susceptibility, broth microdilution; format: cell-based; conditions: read-out: MIC (IC80) CA
[2] = Lipophilicity determination using RP-HPLC (capacity factor, log k); format: physicochemical; conditions: C18, MeOH 55%/H2O 45%
Text: Reversed phase high performance liquid chromatography (RP-HPLC) methods have become popular and are widely used for lipophilicity measurements. The general procedure is the measurement of the directly accessible retention time under isocratic conditions using varying amounts of methanol as an organic modifier in the mobile phase using RP columns and calculating the logarithm of the capacity factors (log k). Log k is the logarithm of the capacity factors in chromatographic approaches that is related to the partitioning of a compound between a mobile and a (pseudo-)stationary phase. Log k is used as the lipophilicity index converted to log P scale.
A Waters Alliance 2695 XE HPLC separation module and a Waters Photodiode Array Detector 2996 (Waters Corp., Milford, MA, USA) were used. A Symmetry® C18 5 μm, 4.6 × 250 mm, Part No. WAT054275 (Waters Corp.) chromatographic column was used. The HPLC separation process was monitored using Empower™ 2 Chromatography Data Software, Waters 2009 (Waters Corp.). A mixture of MeOH p.a. (55%) and H2O-HPLC-Mili-Q Grade (45%) was used as a mobile phase. The total flow of the column was 0.9 mL/min, injection volume 30 μL, column temperature 30 °C and sample temperature 10 °C. A detection wavelength of 210 nm was chosen. A KI methanolic solution was used for the determination of dead time (tD). Retention times (tR) were measured in minutes. The capacity factors k were calculated using the Empower™ 2 Chromatography Data Software according to the formula k = (tR − tD)/tD, where tR is the retention time of the solute, whereas tD denotes the dead time obtained using an unretained analyte. Log k, calculated from the capacity factor k, is used as the lipophilicity index converted to log P scale.

Absidia corymbifera 272 = experiment: In vitro antifungal susceptibility, broth microdilution; format: cell-based; conditions: read-out: MIC (IC50) AC
Candida glabrata 20/I = experiment: as above; format: cell-based; conditions: Nakaseomyces glabratus, read-out: MIC (IC80) CG
Candida tropicalis 156 = experiment: as above; format: cell-based; conditions: read-out: MIC (IC80) CT
[3] = test system: Trichophyton mentagrophytes 445; experiment: as above; format: cell-based; conditions: read-out: MIC (IC50) TM
[4] = test system: HCT-116 human colon cancer cells (p53 wild type); experiment: In vitro antiproliferative activity, MTS assay; format: cell-based; conditions: read-out: HCT-116 IC50
Protocol: The antiproliferative activity of all of the compounds was examined against the human colon cancer (HCT-116) cell line using an MTS assay. The HCT-116 p53 wild type cell line was chosen on the basis of our former experience and some results on the activity of quinoline-based thiosemicarbazones that was published recently. Namely, compounds 4a–l have been tested previously for their wide-ranging anticancer activity. The antiproliferative activity of the compounds evaluated was assessed using Doxorubicin as a reference compound. In general, quinoline-based thiosemicarbazones 4 seem to have a much better anticancer activity than halogenophenyl compounds 3. Thus, the quinoline nucleus can be defined as being crucial for antiproliferative activity. A more detailed analysis of the anticancer activity of quinoline-based thiosemicarbazone is available. […] Nevertheless, some more general conclusions can be drawn from the gathered data. […] The free amino group or substitution pattern with small substituents such as methyl or ethyl are favorable for activity. According to our former results the chelating ability of the compounds may be one of the prerequisites of the antiproliferative activity. In this study we have measured the UV-VIS spectra of the compounds in presence of various concentration of Fe^3+ cations to observe its chelating potency (supplementary material). […] However as 4j give also two points at 330 and 385 nm, iron chelating ability should be regarded only as one of the factor influencing the biological activity.
The human colon cancer cell line HCT116 with the wild type p53 gene (p53^+/+) were obtained from Maria Sklodowska-Curie Memorial Cancer Center in Gliwice, Poland. Briefly, the cells were seeded in 96-well plates (3 × 10^3 cells/well) in cellular proliferation assays 24 h before the addition of the chelators. The assay was performed following a 72 h incubation with varying concentrations of the agents. Each compound was tested in triplicate in a single experiment with each experiment being repeated 3 times. After 72 h incubation with the compounds being investigated, 20 µL of MTS solution was added to each well (100 µL) and incubated for 1 h at 37 °C. The optical densities of the samples were analyzed at 490 nm. Results were expressed as a percentage of the control. The inhibitory concentration (IC50) was defined as the compound concentration necessary to reduce the absorbance to 50% of the untreated control.

[5] = test system: Trichosporon beigelii 1188; experiment: In vitro antifungal susceptibility, broth microdilution; format: cell-based
Text: The broth microdilution test was used for the assessment of the in vitro antifungal activity of the synthesized compounds against Candida albicans ATCC 44859 (CA), Candida tropicalis 156 (CT), Candida krusei ATCC 6258 (CK), Candida glabrata 20/I (CG), Trichosporon beigelii 1188 (TB), Aspergillus fumigatus 231 (AF), Absidia corymbifera 272 (AC), and Trichophyton mentagrophytes 445 (TM). Fluconazole (FLU) was used as the standard since it is a clinically used antimycotic drug. The procedure was performed using a twofold dilution of the compounds in RPMI 1640 (Sevapharma a.s., Prague, Czech Republic) buffered to pH 7.0 with […] of 3-morpholino-propane-1-sulfonic acid (MOPS, Sigma, Prague, Czech Republic). The final concentrations of the compounds ranged from 500 to 0.975 μmol/L. Drug-free controls were included. The determination of minimum inhibitory concentration (MIC) was performed according to the Clinical and Laboratory Standards Institute (CLSI, formerly NCCLS) reference protocol M27-A2 for yeasts (IC80 value) and M38-A for moulds (IC50 value). IC80 and IC50 were defined as an 80% resp. 50% or greater reduction in growth in comparison with the control. The values of MICs were determined after 24 and 48 h of static incubation at 35 °C. The final MICs for T. mentagrophytes, were determined after 72 and 120 h of incubation.

[6] = test system: photosynthetic electron transport (PET) in spinach chloroplasts; experiment: Inhibition of photosynthetic electron transport (PET) in spinach chloroplasts; format: biochemical, Spinacia oleracea L.; conditions: DCPIP photoreduction
Protocol: Chloroplasts were prepared from spinach (Spinacia oleracea L.) according to Masarovicova and Kralova. The inhibition of the photosynthetic electron transport (PET) in spinach chloroplasts was determined spectrophotometrically (Genesys 6, Thermo Fisher Scientific, Waltham, MA, USA) using an artificial electron acceptor 2,6-dichlorophenol-indophenol (DCIPP) according to Kralova et al. and the rate of photosynthetic electron transport was monitored as a photoreduction of DCPIP. The measurements were carried out in a phosphate buffer (0.02 mol/L, pH 7.2) containing sucrose (0.4 mol/L), MgCl2 (0.005 mol/L) and NaCl (0.015 mol/L). The chlorophyll content was 30 mg/L in these experiments and the samples were irradiated (~100 W/m^2 with 10 cm distance) with a halogen lamp (250 W) using a 4 cm water filter to prevent warming of the samples (suspension temperature 22 °C). The compounds studied were dissolved in DMSO due to their limited water solubility. […] The inhibitory efficiency of the compounds studied was expressed by IC50 values, i.e., by the molar concentration of the compounds that caused a 50% decrease in the oxygen evolution rate relative to the untreated control.

Candida krusei ATCC 6258 = experiment: In vitro antifungal susceptibility, broth microdilution; format: cell-based; conditions: Pichia kudriavzevii, read-out: MIC (IC80) CK
[7] = test system: Aspergillus fumigatus 231; experiment: as above; format: cell-based; conditions: read-out: MIC (IC50) AF
[8] = ATCC44859, 24 h and 48 h, only one value presented (inactive)
[9] = Lichtheimia corymbifera, 272, 24 h and 48 h, only one value presented (inactive)
[10] = 24 h and 48 h, only one value presented (inactive)
[11] = Candida tropicalis, 156, 24 h and 48 h, only one value presented (inactive)
[12] = Trichophyton mentagrophytes, 445, 72 h and 120 h, only one value presented (inactive)
[13] = Trichosporon beigelii, 1188, 24 h and 48 h, only one value presented (inactive), read-out: MIC (IC80) TB
[14] = ATCC6258, 24 h and 48 h, only one value presented (inactive)
[15] = Aspergillus fumigatus, 231, 24 h and 48 h, only one value presented (inactive)

CNC(=S)N/N=C/c1cccc(Cl)c1Cl [Compound 3b, (E)-2-(2,3-Dichlorobenzylidene)-N-methylhydrazinecarbothioamide]
MIC [1, 8]: > 500 µM
log k [2]: 0.7357
IC50 (Absidia corymbifera 272; [9]): > 500 µM
MIC (Candida glabrata 20/I; [10]): > 500 µM
MIC (Candida tropicalis 156; [11]): > 500 µM
IC50 [3, 12]: > 500 µM
IC50 ([4]; HCT-116, 72 h incubation, MTS): > 60 µM
MIC [5, 13]: > 500 µM
IC50 [6]: 170 µM
MIC (Candida krusei ATCC 6258; [14]): > 500 µM
IC50 [7, 15]: > 500 µM

CN(C)C(=S)N/N=C/c1cccc(Cl)c1Cl [Compound 3c, (E)-2-(2,3-Dichlorobenzylidene)-N,N-dimethylhydrazinecarbothioamide]
MIC [1, 8]: > 125 µM
log k [2]: 0.7214
IC50 (Absidia corymbifera 272; [9]): > 125 µM
MIC (Candida glabrata 20/I; [10]): > 125 µM
MIC (Candida tropicalis 156; [11]): > 125 µM
IC50 [3, 12]: > 125 µM
MIC [5, 13]: > 125 µM
MIC (Candida krusei ATCC 6258; [14]): > 125 µM
IC50 [7, 15]: > 125 µM

S=C(N/N=C/c1cccc(Cl)c1Cl)Nc1ccccc1 [Compound 3e, (E)-2-(2,3-dichlorobenzylidene)-N-phenylhydrazinecarbothioamide]
MIC [1, 8]: > 125 µM
log k [2]: 0.9230
IC50 (Absidia corymbifera 272; [9]): > 125 µM
MIC (Candida glabrata 20/I; [10]): > 125 µM
MIC (Candida tropicalis 156; [11]): > 125 µM
IC50 [3, 12]: > 125 µM
IC50 ([4]; HCT-116, 72 h incubation, MTS): > 60 µM
MIC [5, 13]: > 125 µM
IC50 [6]: 499 µM
MIC (Candida krusei ATCC 6258; [14]): > 125 µM
IC50 [7, 15]: > 125 µM

CNC(=S)N/N=C/c1ccc(Br)cc1 [Compound 3l, (E)-2-(4-bromobenzylidene)-N-methylhydrazinecarbothioamide]
MIC [1, 8]: > 500 µM
log k [2]: 0.6993
IC50 (Absidia corymbifera 272; [9]): > 500 µM
MIC (Candida glabrata 20/I; [10]): > 500 µM
MIC (Candida tropicalis 156; [11]): > 500 µM
IC50 [3, 12]: > 500 µM
IC50 ([4]; HCT-116, 72 h incubation, MTS): > 60 µM
MIC [5, 13]: > 500 µM
MIC (Candida krusei ATCC 6258; [14]): > 500 µM
IC50 [7, 15]: > 500 µM

S=C(N/N=C/c1ccc(Br)cc1)Nc1ccccc1 [Compound 3o, (E)-2-(4-bromobenzylidene)-N-phenylhydrazinecarbothioamide]
MIC [1, 8]: > 500 µM
log k [2]: 0.8772
IC50 (Absidia corymbifera 272; [9]): > 500 µM
MIC (Candida glabrata 20/I; [10]): > 500 µM
MIC (Candida tropicalis 156; [11]): > 500 µM
IC50 [3, 12]: > 500 µM
IC50 ([4]; HCT-116, 72 h incubation, MTS): > 60 µM
MIC [5, 13]: > 500 µM
MIC (Candida krusei ATCC 6258; [14]): > 500 µM
IC50 [7, 15]: > 500 µM

CNC(=S)NN=Cc1ccc2ccccc2n1 [Compound 4a]
MIC [1, 8]: > 500 µM
log k [2]: 0.6329
IC50 (Absidia corymbifera 272; [9]): > 500 µM
MIC (Candida glabrata 20/I; [10]): > 500 µM
MIC (Candida tropicalis 156; [11]): > 500 µM
IC50 [3, 12]: > 500 µM
IC50 ([4]; HCT-116, 72 h incubation, MTS): > 25 µM
MIC ([5]; Trichosporon beigelii, 1188, read-out: MIC (IC80) TB): > 500 µM
MIC (Candida krusei ATCC 6258; [14]): > 500 µM
IC50 [7, 15]: > 500 µM

CCNC(=S)NN=Cc1ccc2ccccc2n1 [Compound 4c]
log k [2]: 0.6892

S=C(NN=Cc1ccc2ccccc2n1)Nc1ccccc1 [Compound 4d]
log k [2]: 0.7553

CCNC(=S)NN=Cc1ccc2cccc(O)c2n1 [Compound 4g]
log k [2]: 0.6810

CN(C)C(=O)Nc1ccc(Cl)c(Cl)c1 [DCMU, 3-(3,4-dichlorophenyl)-1,1-dimethylurea, reference compound]
IC50 [6]: ~1.9 µM and 1.9 µM

COc1cccc2c1C(=O)c1c(O)c3c(c(O)c1C2=O)C[C@@](O)(C(=O)CO)C[C@@H]3O[C@H]1C[C@H](N)[C@H](O)[C@H](C)O1 [DXR, doxorubicin, reference compound]
IC50 ([4]; HCT-116, 72 h): 10 ± 1.1 µM

OC(Cn1cncn1)(Cn1cncn1)c1ccc(F)cc1F [FLU, Fluconazole, reference compound]
MIC ([1]; ATCC44859, 24 h): 0.06 µM (≈ 0.0184 µg/mL)
MIC ([1]; ATCC44859, 48 h): 0.12 µM (≈ 0.0368 µg/mL)
IC50 (Absidia corymbifera 272; Lichtheimia corymbifera, 272, 24 h): > 125 µM
IC50 (Absidia corymbifera 272; Lichtheimia corymbifera, 272, 48 h): > 125 µM
MIC (Candida glabrata 20/I; 24 h): 0.98 µM (≈ 0.3 µg/mL)
MIC (Candida glabrata 20/I; 48 h): 3.91 µM (≈ 1.2 µg/mL)
MIC (Candida tropicalis 156; Candida tropicalis, 156, 24 h): 0.12 µM (≈ 0.0368 µg/mL)
MIC (Candida tropicalis 156; Candida tropicalis, 156, 48 h): > 125 µM
IC50 ([3]; Trichophyton mentagrophytes, 445, 72 h): 1.95 µM
IC50 ([3]; Trichophyton mentagrophytes, 445, 120 h): 3.91 µM
MIC ([5]; Trichosporon beigelii, 1188, 24 h, read-out: MIC (IC80) TB): 0.24 µM (≈ 0.0735 µg/mL)
MIC ([5]; Trichosporon beigelii, 1188, 48 h, read-out: MIC (IC80) TB): 0.48 µM (≈ 0.147 µg/mL)
MIC (Candida krusei ATCC 6258; ATCC6258, 24 h): 3.91 µM (≈ 1.2 µg/mL)
MIC (Candida krusei ATCC 6258; ATCC6258, 48 h): 15.6 µM (≈ 4.78 µg/mL)
IC50 ([7]; Aspergillus fumigatus, 231, 24 h): > 125 µM
IC50 ([7]; Aspergillus fumigatus, 231, 48 h): > 125 µM
